One series has as its system Pseudomonas spp. CTO7. The series can be described thus: Flow-cell antimicrobial test: bacterial cell count in effluent of coated silicone tubing. Type of series: cell-based. The settings on record: 100 μL effluent plated on 10% TSA. The procedure:
Preparation of Self Assembled Monolayers on Silicone Tubing
Silicone tubing was rinsed with IPA and H2O using a peristaltic pump then dried by running air through the tubes. A 0.05% (w/v) solution of 8a in H2O and a 0.5% (w/v) solution of 4c in H2O/IPA were prepared. Tubes were coated using the peristaltic pump and filled tubes were irradiated using a UV fumehood for 25 minutes. Coated tubes were then rinsed with H2O to remove any unbound materials.
1.5% (w/v) solutions of 8a and 4c in dichloromethane (DCM) were prepared. These solutions were pumped through clean silicone tubing using a syringe and irradiated using a UV quartz lamp for 30 minutes.
Antimicrobial Test Method
The antimicrobial efficacy was determined using a flow-cell method as described in Markison C and Swan J, “The Effect of Humidity on the Survival of MRSA on Hard Surfaces”, Indoor and Built Environment, 2006, 15(1), 85-91. A 1% tryptic soy broth and an inoculum of 10×10^4 cfu/mL of Pseudomonas spp. CTO7 were pumped through silicone tubing coated with 8a, 4c and a control tube for 30 hours. The tubes were then left stagnant for a period of 2 hours after which only the 1% TSB was allowed to flow through the tubes for 48 hours. During these 48 hours effluent samples of 100 μL were collected periodically and plated on 10% trypticase soy agar (TSA) in a dilution series up to 10×10^4. Sampling periods were time zero, 3 hours, 6 hours, 24 hours, 27 hours, 30 hours, and 48 hours. The number of colonies grown on each plate was counted in order to determine antimicrobial activity.

The mark [1] stands for this setting: time 0 hr, sample dilution 10^0.
[2] abbreviates: time 0 hr, sample dilution 10^−1.
Setting [3] is: time 0 hr, sample dilution 10^−2.
The mark [4] stands for this setting: time 0 hr, sample dilution 10^−3.
The mark [5] stands for this setting: time 0 hr, sample dilution 10^−4.
[6] abbreviates: time 3 hr, sample dilution 10^0.
Setting [7] is: time 3 hr, sample dilution 10^−1.
The mark [8] stands for this setting: time 3 hr, sample dilution 10^−2.
Where [9] appears, read: time 3 hr, sample dilution 10^−3.
Where [10] appears, read: time 3 hr, sample dilution 10^−4.
The mark [11] stands for this setting: time 6 hr, sample dilution 10^0.
[12] abbreviates: time 6 hr, sample dilution 10^−1.
[13] abbreviates: time 6 hr, sample dilution 10^−2.
The mark [14] stands for this setting: time 6 hr, sample dilution 10^−3.
[15] abbreviates: time 6 hr, sample dilution 10^−4.
Where [16] appears, read: time 24 hr, sample dilution 10^0.
Setting [17] is: time 24 hr, sample dilution 10^−1.
The mark [18] stands for this setting: time 24 hr, sample dilution 10^−2.
The mark [19] stands for this setting: time 24 hr, sample dilution 10^−3.
Setting [20] is: time 24 hr, sample dilution 10^−4.
The mark [21] stands for this setting: time 27 hr, sample dilution 10^0.
Where [22] appears, read: time 27 hr, sample dilution 10^−1.
The mark [23] stands for this setting: time 27 hr, sample dilution 10^−2.
Where [24] appears, read: time 27 hr, sample dilution 10^−3.
[25] abbreviates: time 27 hr, sample dilution 10^−4.
Where [26] appears, read: time 30 hr, sample dilution 10^0.
[27] abbreviates: time 30 hr, sample dilution 10^−1.
[28] abbreviates: time 30 hr, sample dilution 10^−2.
The mark [29] stands for this setting: time 30 hr, sample dilution 10^−3.
[30] abbreviates: time 30 hr, sample dilution 10^−4.
Where [31] appears, read: time 48 hr, sample dilution 10^0.
Where [32] appears, read: time 48 hr, sample dilution 10^−1.
Setting [33] is: time 48 hr, sample dilution 10^−2.
Where [34] appears, read: time 48 hr, sample dilution 10^−3.
Setting [35] is: time 48 hr, sample dilution 10^−4.

Where a name gives a salt, the structure may show the parent alone.

In general, melting point refers to the temperature of the solid-liquid transition. `CN(C)c1cccc2c(S(=O)(=O)NCCC[N+](C)(C)CCCCOc3ccc(C(=O)c4ccccc4)cc3)cccc12` (as salt: bromide) [Compound 8a, 4-(4-benzoylphenoxy)-N-(3-(5-(dimethylamino)naphthalene-1-sulfonamido)propyl)-N,N-dimethylbutan-1-ammonium bromide]: the melting point was 96 to 104 °C.

Turning to `CCCCCCCCCCCCCCCCCC[N+](C)(C)CCCOc1ccc(C(=O)c2ccccc2)cc1` [Compound 4c], the “Pseudomonas bacterial cell count on coated silicone tubing” value (“Pseudomonas bacterial cell count” below) turned out to be 300 cfu/mL in the series on Pseudomonas spp. CTO7 (setting [1]); 300 cfu/mL with Pseudomonas spp. CTO7 (setting [2]); 48 cfu/mL in the series on Pseudomonas spp. CTO7 (setting [3]); 8 cfu/mL with Pseudomonas spp. CTO7 (setting [4]); 0 cfu/mL with Pseudomonas spp. CTO7 (setting [5]); 20 cfu/mL in the series with Pseudomonas spp. CTO7 (setting [6]). The “Pseudomonas bacterial cell count” value in the series with Pseudomonas spp. CTO7 (setting [7]) is listed as 0 cfu/mL; with Pseudomonas spp. CTO7 (setting [8]), 0 cfu/mL; in the series with Pseudomonas spp. CTO7 (setting [9]) it was 0 cfu/mL; in the series with Pseudomonas spp. CTO7 (setting [10]), 0 cfu/mL; with Pseudomonas spp. CTO7 (setting [11]) it was 160 cfu/mL; in the series with Pseudomonas spp. CTO7 (setting [12]), 15 cfu/mL. Moreover, the “Pseudomonas bacterial cell count” value is listed as 0 cfu/mL in the series on Pseudomonas spp. CTO7 (setting [13]); 0 cfu/mL in the series with Pseudomonas spp. CTO7 (setting [14]); 0 cfu/mL in the series on Pseudomonas spp. CTO7 (setting [15]); 300 cfu/mL in the series with Pseudomonas spp. CTO7 (setting [16]); 200 cfu/mL in the series with Pseudomonas spp. CTO7 (setting [17]); 21 cfu/mL in the series on Pseudomonas spp. CTO7 (setting [18]). The “Pseudomonas bacterial cell count” value in the series with Pseudomonas spp. CTO7 (setting [19]) was 4 cfu/mL; with Pseudomonas spp. CTO7 (setting [20]), 0 cfu/mL; in the series on Pseudomonas spp. CTO7 (setting [21]), 300 cfu/mL; in the series with Pseudomonas spp. CTO7 (setting [22]), 110 cfu/mL; with Pseudomonas spp. CTO7 (setting [23]), 11 cfu/mL; with Pseudomonas spp. CTO7 (setting [24]), 0 cfu/mL. The “Pseudomonas bacterial cell count” value is listed as 0 cfu/mL with Pseudomonas spp. CTO7 (setting [25]); 300 cfu/mL in the series with Pseudomonas spp. CTO7 (setting [26]); 70 cfu/mL in the series with Pseudomonas spp. CTO7 (setting [27]); 5 cfu/mL with Pseudomonas spp. CTO7 (setting [28]); 0 cfu/mL in the series on Pseudomonas spp. CTO7 (setting [29]); 0 cfu/mL in the series with Pseudomonas spp. CTO7 (setting [30]). Moreover, the “Pseudomonas bacterial cell count” value in the series with Pseudomonas spp. CTO7 (setting [31]) was 289 cfu/mL; in the series on Pseudomonas spp. CTO7 (setting [32]), 31 cfu/mL; in the series on Pseudomonas spp. CTO7 (setting [33]), 0 cfu/mL; in the series with Pseudomonas spp. CTO7 (setting [34]), 0 cfu/mL; with Pseudomonas spp. CTO7 (setting [35]), 0 cfu/mL.

`CN(C)c1cccc2c(S(=O)(=O)NCCC[N+](C)(C)CCCCOc3ccc(C(=O)c4ccccc4)cc3)cccc12` [Compound 8a, 4-(4-benzoylphenoxy)-N-(3-(5-(dimethylamino)naphthalene-1-sulfonamido)propyl)-N,N-dimethylbutan-1-ammonium bromide]: the “Pseudomonas bacterial cell count” value was found to be 0 cfu/mL in the series with Pseudomonas spp. CTO7 (setting [1]); 0 cfu/mL with Pseudomonas spp. CTO7 (setting [2]); 0 cfu/mL in the series on Pseudomonas spp. CTO7 (setting [3]); 0 cfu/mL with Pseudomonas spp. CTO7 (setting [4]); 0 cfu/mL in the series with Pseudomonas spp. CTO7 (setting [5]); 15 cfu/mL in the series with Pseudomonas spp. CTO7 (setting [6]). In addition, the “Pseudomonas bacterial cell count” value in the series with Pseudomonas spp. CTO7 (setting [7]) is 0 cfu/mL; in the series with Pseudomonas spp. CTO7 (setting [8]) it was 0 cfu/mL; with Pseudomonas spp. CTO7 (setting [9]) it was 0 cfu/mL; in the series on Pseudomonas spp. CTO7 (setting [10]), 0 cfu/mL; with Pseudomonas spp. CTO7 (setting [11]) it was 6 cfu/mL; with Pseudomonas spp. CTO7 (setting [12]) it was 0 cfu/mL. The “Pseudomonas bacterial cell count” value with Pseudomonas spp. CTO7 (setting [13]), in the series on Pseudomonas spp. CTO7 (setting [14]), in the series on Pseudomonas spp. CTO7 (setting [15]), with Pseudomonas spp. CTO7 (setting [16]), in the series on Pseudomonas spp. CTO7 (setting [17]) and in the series with Pseudomonas spp. CTO7 (setting [18]) was 0 cfu/mL each time. Besides, the “Pseudomonas bacterial cell count” value is 0 cfu/mL in the series with Pseudomonas spp. CTO7 (setting [19]); 0 cfu/mL in the series with Pseudomonas spp. CTO7 (setting [20]); 30 cfu/mL in the series with Pseudomonas spp. CTO7 (setting [21]); 0 cfu/mL in the series with Pseudomonas spp. CTO7 (setting [22]); 0 cfu/mL in the series with Pseudomonas spp. CTO7 (setting [23]); 0 cfu/mL in the series on Pseudomonas spp. CTO7 (setting [24]). The “Pseudomonas bacterial cell count” value in the series on Pseudomonas spp. CTO7 (setting [25]) was found to be 0 cfu/mL; with Pseudomonas spp. CTO7 (setting [26]) it was 18 cfu/mL; with Pseudomonas spp. CTO7 (setting [27]) it was 4 cfu/mL; in the series on Pseudomonas spp. CTO7 (setting [28]) it was 0 cfu/mL; in the series with Pseudomonas spp. CTO7 (setting [29]) it was 0 cfu/mL; in the series on Pseudomonas spp. CTO7 (setting [30]), 0 cfu/mL. The “Pseudomonas bacterial cell count” value in the series with Pseudomonas spp. CTO7 (setting [31]) worked out at 27 cfu/mL; in the series on Pseudomonas spp. CTO7 (setting [32]) it was 1 cfu/mL; in the series on Pseudomonas spp. CTO7 (setting [33]), 0 cfu/mL; with Pseudomonas spp. CTO7 (setting [34]) it was 0 cfu/mL; in the series on Pseudomonas spp. CTO7 (setting [35]), 0 cfu/mL.

The values above are taken from patent US10961401B2, “UV cured benzophenone terminated quaternary ammonium antimicrobials for surfaces” (NANO SAFE COATINGS INCORPORATED, priority 2012, dated 2021).
